US20220251610A1, “Prehydrolysate Fermentability in Biomass Pretreatment” (University of Cincinnati, priority 2021, published 2022)

How the values were obtained:
Saccharomyces cerevisiae = assay: Yeast fermentation of prehydrolysates from dilute acid pretreatment of aspen with nucleophilic additives; type: cell-based; conditions: for time at which glucose was completely consumed: 4% (w/w of dry biomass) additive in dilute acid pretreatment, glucose about 20 g/L; for final ethanol concentration / glucose consumption rate / volumetric ethanol productivity: 4% additive in pretreatment; for final ethanol concentration: 48 h fermentation; for glucose consumption rate / volumetric ethanol productivity: first 6 h of fermentation
Protocol: This analysis was carried out according to the NREL protocol. All pretreatment experiments were carried out in a Parr batch pressure vessel (model of 4520 of 2.0 L of capacity) (Parr Instrument Co., Moline, Ill.). […] All the pretreatment processes were conducted at 170° C. in 60 min. After pretreatment, the stirred reactor was quenched in a bucket with cold water. The slurry after pretreatment was separated into solid fraction and liquid fraction by vacuum filtration. The liquid fraction (prehydrolysates) was stored at 4° C. and used for subsequent analyses and fermentation. The pretreated substrates were washed with 560 mL warm water at least three times and collected by vacuum filtration. Fleischmann's pure dry yeast, Saccharomyces cerevisiae was stored at 4° C. and used for the ethanol fermentation. […] The concentration of yeast suspensions was determined by UV-spectrophotometer at 600 nm. […] Batch fermentation was taking place in a 250 mL flask with 50 mL prehydrolysates without any extra nutrients. […] Moreover, excessive CaCO3 was added to adjust the pH of prehydrolysates to 6. Then, the solution was filtered to remove CaCO3 and other impurities through the membrane filter (0.22 μm). All fermentation experiments were incubated at 30° C. and 150 rpm for 48 h in an incubator shaker (E24, New Brunswick Scientific). […] Fermentation was conducted in duplicate. The volumetric ethanol productivity (QEtOH) was calculated based on the produced ethanol in the first 6 h of fermentation as described previously. […] The sugar concentrations were detected by an Agilent 1260 HPLC system equipped with a Bio-Rad HPX-87P column (300×7.8 mm) connected to a refractive index detector (RID-10A). […] The column temperature and detector temperature were kept at 80, and 45° C., respectively. […] To examine whether adding nucleophilic additives in pretreatment can enhance prehydrolysate fermentability, cysteine, histidine, soy protein isolate (SPI) and bovine serum albumin (BSA) were added in the dilute acid pretreatment of aspen.

[1] = Xylan 1.67 g/L; cited from earlier work

Row | Molecule | time at which glucose was completely consumed (Saccharomyces cerevisiae) [h] | final ethanol concentration (Saccharomyces cerevisiae) [g/L] | glucose consumption rate (Saccharomyces cerevisiae) [g/L/h] | volumetric ethanol productivity (Saccharomyces cerevisiae) [g/L/h] | reduction of the initial hydrolysis rate of Avicel [1] [%]
1 | N[C@@H](Cc1c[nH]cn1)C(=O)O [histidine] | 6 | 8.69 | 3.22 | 1.44 | 
2 | Xylan |  |  |  |  | 34.5
3 | N[C@@H](CS)C(=O)O [cysteine] | 24 | 8.87 | 1.35 | 0.51 | 
